Test results as given in patent US20140296137A1, “METHODS AND COMPOSITIONS FOR CONTROLLING ROTIFERS” (Los Alamos National Security, LLC, priority 2013, published 2014).
Read-outs that look alike come from different tables or passages of the source. Ends that are not written are not given here.

Columns and labels:
[1] = tested on: Adineta vaga; assay type: in vivo; set-up: key to the marks not given beside the values; settings: AMP 0.5 mg/mL, 24 hr time point, room temperature, visual motility score
Description: (§1) Briefly, the rotifer motility assay used herein in the presence of a biocontrol agent (e.g., AMP) may be used as a measure of relative rotifer viability and competency. Rotifer diet, of which algae is considered to be an important food source, is one of the key environmental factors that impact the growth and multiplication of rotifers. In effect, the inability of a rotifer to be mobile (i.e., inability to swim toward a food source and/or to have mobile cilia that help trap food) prevents the rotifer from ingesting sufficient nutrients to further grow and reproduce. Thus, any approach that reduces and/or inhibits rotifer motility has a significant impact on an individual rotifer and therefore rotifer populations. With respect to algae cultures, reducing and/or inhibiting rotifer motility prevents and/or reduces any negative impact rotifers have on algae cultures (e.g., open pond systems for algae biomass and biofuel production). In other words, reducing and/or inhibiting rotifer motility reduces and/or prevents rotifers (e.g., infestations) from ingesting and consequently damaging algae cultures use in biofuel production.
(§2) The effect of the insecticidal and non-insecticidal AMPs of Table 2 (Example 1) on three different rotifer species was measured. The three rotifer species were Adineta vaga and Philodina acuticornis (class Bdelloid rotifers), and Brachionus (Monogononta class). A visual motility assay was used to determine the impact of the individual AMPs on rotifer viability. In each case, a light microscope with 20× magnification was used to observe rotifer motility (activity). […] FIGS. 1A, 1C and 1E show a 20× magnification of Adineta vaga, Philodina acuticornis and Brachionus (untreated), respectively. FIGS. 1B, 1D and 1F show a 20× magnification of Adineta vaga, Philodina acuticornis and Brachionus (AMP treated), respectively.
(§3) Rotifer cultures were initiated in 12-well or 24-well plates at a density of approximately 100-200 rotifers/mL. The 12-well plates contained a volume of 1 mL per well, and the 24-well plates contained a volume of about 0.25 mL to about 0.35 mL per well. Individual rotifer cultures (individual wells) were incubated with a select AMP at a concentration of 0.5 mg/mL (or a range of about 78 μM to about 365 μM) for 18, 21 and 24 hours at room temperature. The rotifer cultures were monitored by preparing microscopy slides with a small sample taken from the individual wells. The slides were then visualized under a 20× magnification microscope for rotifer motility. […] The scoring system was based on observing a subset of the rotifer population from each well. The impact on the subset of rotifers observed served as a representative of the impact on the entire rotifer population for that particular AMP treatment.
(§4) A summary of the motility assay (or “Kill Assay”) for each insecticidal and non-insecticidal AMP incubated with the three different rotifer species for the 24 hour time point is provided below in Table 5 (insecticidal AMPs) and Table 6 (non-insecticidal AMPs). The 18 and 21 hour time points gave similar results to the 24 hour time point.

[2] = tested on: Philodina acuticornis; assay type: in vivo; set-up: key to the marks not given beside the values; settings: AMP 0.5 mg/mL, 24 hr time point, room temperature, visual motility score
Description: as §1, §2, §3, §4

[3] = tested on: Chlamydomonas reinhardtii
Description: (§5) This example provides the minimal inhibitory concentration (MIC) of antimicrobial peptides (AMPs) for algae. […] Therefore, the tolerance of algae to the AMPs listed in Table 2 of Example 1 was measured.
(§6) Briefly, the algae viability assay used herein measured the “health” of the algae cultures by looking at the color of the algae. […] A visual assay was used to determine the MIC for the individual AMPs on the algae. In each case, a light microscope with 20× magnification was used to observe algae color.
(§7) The effect of insecticidal and non-insecticidal AMPs on three different algae species was measured. The three algae species were Auxenochlorella protothecoides, Chlorella sorokiniana and Chlamydomonas reinhardtii.
(§8) Algae cultures were initiated in 96-well plates at an OD 750 of approximately 0.1. […] The antibiotics hygromycin and paromycin served as positive controls for inhibiting and/or reducing the growth rate of algae. […] The algae cultures were monitored by preparing microscopy slides with a small sample taken from the individual wells. The algae slides were then visualized under a 20× magnification microscope for algae viability as measured by algae color.

[4] = tested on: Chlorella sorokiniana
Description: as §5, §6, §7, §8

[5] = tested on: Chlorella protothecoides
Description: as §5, §6, §7, §8

[6] = tested on: Brachionus; assay type: in vivo; settings: AMP 0.5 mg/mL, 24 hr time point, room temperature, visual motility score
Description: as §1, §2, §3, §4

[7] = 5-6 days, room temperature, 96-well, algae colour under 20× microscope, ND = AMP killed all the algae

Molecule	“Kill” Efficiency Adineta vaga [1]	“Kill” Efficiency Philodina [2]	Minimal Inhibitory Concentration (MIC) Chlamydomonas reinhardtii [3, 7]	Minimal Inhibitory Concentration (MIC) Chlorella sorokiana [4, 7]	Minimal Inhibitory Concentration (MIC) Chlorella protothecoides [5, 7]	“Kill” Efficiency Brachionus [6]	Minimal Inhibitory Concentration (MIC) Chlorella sorokiana [4]	Minimal Inhibitory Concentration (MIC) Chlamydomonas reinhardtii [3]	Minimal Inhibitory Concentration (MIC) Chlorella protothecoides [5]
CC[C@H](C)[C@H](NC(=O)CN)C(=O)NCC(=O)N[C@@H](C)C(=O)N[C@H](C(=O)N[C@@H](CC(C)C)C(=O)N[C@@H](CCCCN)C(=O)N[C@H](C(=O)N[C@@H](CC(C)C)C(=O)N[C@H](C(=O)N[C@H](C(=O)NCC(=O)N[C@@H](CC(C)C)C(=O)N1CCC[C@H]1C(=O)N[C@@H](C)C(=O)N[C@@H](CC(C)C)C(=O)N[C@H](C(=O)N[C@@H](CO)C(=O)N[C@@H](Cc1c[nH]c2ccccc12)C(=O)N[C@H](C(=O)N[C@@H](CCCCN)C(=O)N[C@@H](CCCNC(=N)N)C(=O)N[C@@H](CCCCN)C(=O)N[C@@H](CCCNC(=N)N)C(=O)N[C@@H](CCC(N)=O)C(=O)N[C@@H](CCC(N)=O)C(N)=O)[C@@H](C)CC)[C@@H](C)CC)[C@@H](C)O)[C@@H](C)O)C(C)C)C(C)C [Melittin]	+++	+++	ND (kills)	11 µM	11 µM				
DFKDWMKTAGEWLKKKGPGILKAAMAAAT [Ponericin G4]			19.8 µM	79 µM	158 µM				
FFHHIFRGIVHVGKTIHKLVTG [Piscidin 2]	+++	+++			24.6 µM	+++	24.6 µM		
FFHHIFRGIVHVGKTIHRLVTG [Piscidin 1]	+++	+++				+++	24.3 µM	12.2 µM	12.2 µM
FIHHIFRGIVHAGRSIGRFLTG [Piscidin 3]	+++	+++				+++	100.3 µM		
FSFKRLKGFAKKLWNSKLARKIRTKGLKYVKNFAKDMLSEGEEAPPAAEPPVEAPQ [Im-1]	+++	+++	9.9 µM	19.7 µM	9.9 µM	+++			
FWGALIKGAAKLIPSVVGLFKKKQ [Ponericin W5]	+++	+++	12 µM	24 µM	12 µM	+++			
GFGSLFKFLAKKVAKTVAKQAAKQGAKYVANKHME [Cupiennin 1D]	+++	+++	32.9 µM	65.9 µM	16.5 µM				
GIGKFLHSAKKFGKAFVGEIMNS [Magainin 2]	+++	+++				+	50.7 µM		
GIWGTALKWGVKLLPKLVGMAQTKKQ [Ponericin W4]	+++	+++	11 µM	87.6 µM	43.8 µM	+++			
GIWGTLAKIGIKAVPRVISMLKKKKQ [Ponericin W3]	+++	+++	5.5 µM	87.3 µM	21.8 µM	+++			
GLVDVLGKVGGLIKKLLP [Ponericin G6]			17.2 µM	274.9 µM	274.9 µM	+++			
GWKDWAKKAGGWLKKKGPGMAKAALKAAMQ [Ponericin G1]	+++	+++	19.5 µM	155.8 µM	78 µM	+++			
GWKDWLNKGKEWLKKKGPGIMKAALKAATQ [Ponericin G3]	+++	+++	9.2 µM	37 µM	37 µM	+++			
IWLTALKFLGKHAAKHLAKQQLSKL [Lycotoxin-1, Lycotoxin I]	+++	+++	22 µM	88 µM	44 µM	+++			
KWKLFKKIEKVGQNIRDGIIKAGPAVAVVGQATQIAK [Cecropin A]	+++	++	15.6 µM	124.9 µM	124.9 µM				
KWKLFKKIGIGKFLHWAKKF [W16-CA(1-8)-MA(1-12)]	+++	+++	12.5 µM	25 µM	ND (kills)	+			
LLKELWTKIKGAGKAVLGKIKGLL [Ponericin L2]	+++	+++	12.1 µM	97 µM	48.5 µM				
MASRHMFLPLIGRVLSGIL [MsrA3]	+++	+++	29.6 µM		59.2 µM	+			
WLGSALKIGAKLLPSVVGLFKKKKQ [Ponericin W1]	+++	+++	11.5 µM	46.1 µM	23.1 µM	+++			
